Results as given in patent publication US20230133445A1, “COMPOSITIONS AND METHODS FOR IMPROVING THE APPEARANCE OF SKIN” (L'Oreal, priority 2021, published 2023).

How the values were obtained:
[1] = target: T1, Neutrophil Elastase (Homo sapiens, UniProt P08246); assay: Neutrophil Elastase (NE) Inhibition in tubo assay (MAK213, Sigma-Aldrich); type: biochemical
T1 construct: purchased Sigma-Aldrich MAK213
T1 sequence (P08246 30-267): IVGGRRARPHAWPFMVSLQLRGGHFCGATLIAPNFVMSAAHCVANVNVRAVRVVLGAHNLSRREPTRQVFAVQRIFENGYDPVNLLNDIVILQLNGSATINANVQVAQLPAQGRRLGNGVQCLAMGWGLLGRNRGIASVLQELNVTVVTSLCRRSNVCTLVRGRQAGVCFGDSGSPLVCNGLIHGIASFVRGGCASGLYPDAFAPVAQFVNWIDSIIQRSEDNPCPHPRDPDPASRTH
Experimental: The ability of acetyl trifluoromethylphenyl valylglycine (“ATV”), glycolic acid, and/or lactic acid to inhibit the elastin-hydrolyzing effect of elastase was evaluated in a Neutrophil Elastase (NE) Inhibition in tubo assay (MAK213, Sigma-Aldrich, MO). Neutrophil Elastase activity was measured by hydrolyzing the substrate to yield a fluorescent product (λex=400/λem=505 nm) proportional to the enzymatic activity present.
A 4× sample inhibitor solution of the each tested chemical peeling agent and acetyl trifluoromethylphenyl valylglycine, and every combination provided in FIGS. 1 and 2 was prepared. The inhibitor/positive control (Elastase Inhibitor, SPCK, AG Scientific), enzyme/negative control (contains elastase), neutrophil elastase, and substrate solutions were prepared. The test compounds, controls, and neutrophil elastase were added to a 96-well plate, protected from light, and incubated at 37° C. for 5 minutes. The elastin substrate was then added to each well and the fluorescence (FLU, λex=400 nm, λem=505 nm) was measured every minute for thirty minutes at 37° C. The slope of the plot (time vs FLU) was taken. Relative inhibition was calculated as follows: […]

[2] = type: in vitro ADME, human
Experimental: Human skin samples were obtained from abdominal surgery. Excess subcutaneous fat was removed, if necessary. Skin samples were excised and cut into pieces of around 2 cm×2 cm. Thickness was measured and transepidermal water loss (TEWL) was measured. The human skin was included in the study if the TEWL was between 0.5 and 13 g/m^2/h for abdominal skin. The 2 cm^2 skin samples were kept in a static cell in a diffusion chamber in a Franz cell horizontal cell clamp system (Crown Glass Company, Inc.) and maintained at a constant temperature of 32° C.±1° C. The static cells consist of a donor chamber and a receptor chamber with a 7 mL receptor fluid compartment separated by the skin.
The cells were placed on a magnetic stirrer which was integrated with a fixed temperature water bath maintained in order to have 32° C.±1° C. at the skin surface. The receptor compartment of each cell was filled with the receptor fluid (PBS) and was continuously stirred. The skin samples were placed on the receptor compartment. The donor compartment was then placed onto the skin samples. […]
A composition containing 2 wt % acetyl trifluoromethylphenyl valylglycine was applied to the skin sample at a rate of 10 mg/cell using a positive displacement pipette and the exact amount applied was determined by weight then recorded (Sartorius Entris II Essential Analytical balance, Thermo-Fisher). […]
The skin was then stripped with consistent weight and time of application. […] The strips samples were stored with solvent (methanol) at −20° C. for a maximum of 5 days before being analyzed. […] The RS vials were stored with solvent (methanol) at −20° C. for a maximum of 7 days before being analyzed. Dermis and epidermis samples were stored with solvent at −20° C. for a maximum of 7 days before being analyzed. The receptor fluid was taken 16 hours after the application and the samples were analyzed.
Receptor fluid samples were stored at −20° C. for a maximum of 6 days before being analyzed. […] Samples were stored at −20° C. for a maximum of 5 days before being analyzed.
The final extract was analyzed by LC-MS/MS. […]

Structure (SMILES): CC(=O)N(c1cccc(C(F)(F)F)c1)C(C(=O)NCC(=O)O)C(C)C (stereo not shown) [ATV, acetyl trifluoromethylphenyl valylglycine]
- Average Inhibition (%) ([1]; Table 1, 0.0125 wt % ATV): 12.49%
- Average Inhibition (%) ([1]; Table 1, 0.025 wt % ATV): 14.97%
- Average Inhibition (%) ([1]; Table 1, 0.0625 wt % ATV): 18.36%
- Average Inhibition (%) ([1]; Table 2, 0.0125 wt % ATV): 4.93%
- Average Inhibition (%) ([1]; Table 2, 0.025 wt % ATV): 9.311%
- Average Inhibition (%) ([1]; Table 2, 0.0625 wt % ATV): 11.96%
- amount penetrated through the stratum corneum [2]: about 0.08 wt %
- amount penetrating past the stratum corneum barrier into epidermis, dermis and receptor fluid [2]: about 0.8%
- dermal dose of the 2 wt % preparation [2]: at least 0.08 wt %

Structure (SMILES): O=C(O)CO [Glycolic Acid, reference compound]
- Average Inhibition (%) ([1]; Table 1, 0.125 wt % Glycolic Acid): 15.8949%
- Average Inhibition (%) ([1]; Table 1, 0.625 wt % Glycolic Acid): 23.89%

Structure (SMILES): CC(O)C(=O)O (stereo not shown) [Lactic Acid, reference compound]
- Average Inhibition (%) ([1]; Table 2, 0.125 wt % Lactic Acid): 8.507%
- Average Inhibition (%) ([1]; Table 2, 0.625 wt % Lactic Acid): 24.09%
